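Assay format: 96-well plates, 48-hour exposure. At the GI50, growth is halved. At the TGI there is no net growth.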
Key:
Test in all cases: inhibition of tumour cell growth, NCI panel, 48 h
[1] = tested on: 786-0 renal
[2] = tested on: A549 NSCLC
[3] = tested on: ACHN renal
[4] = tested on: BT-549 breast
[5] = tested on: CAKI-1 renal
[6] = tested on: CCRF-CEM leukemia
[7] = tested on: COLO 205 colon
[8] = tested on: DU-145 prostate
[9] = tested on: EKVX NSCLC
[10] = tested on: HCC-2998 colon
[11] = tested on: HCT-116 colon
[12] = tested on: HCT-15 colon
[13] = tested on: HL-60(TB) leukemia
[14] = tested on: HOP-62 NSCLC
[15] = tested on: HOP-92 NSCLC
[16] = tested on: HS 578T breast
[17] = tested on: HT29 colon
[18] = tested on: IGROV1 ovarian
[19] = tested on: K-562 leukemia
[20] = tested on: KM12 colon
[21] = tested on: LOX IMVI melanoma
[22] = tested on: M14 melanoma
[23] = tested on: MALME-3M melanoma
[24] = tested on: MCF7 breast
[25] = tested on: MDA-MB-231 breast
[26] = tested on: MDA-MB-435
[27] = tested on: MDA-N
[28] = tested on: MOLT-4 leukemia
[29] = tested on: NCI-H226 lung
[30] = tested on: NCI-H23 lung
[31] = tested on: NCI-H460 lung
[32] = tested on: NCI-H522 lung
[33] = tested on: NCI/ADR-RES ovarian
[34] = tested on: OVCAR-3 ovarian
[35] = tested on: OVCAR-4 ovarian
[36] = tested on: OVCAR-5 ovarian
[37] = tested on: OVCAR-8 ovarian
[38] = tested on: PC-3 prostate
[39] = tested on: RPMI-8226 leukemia
[40] = tested on: RXF 393 renal
[41] = tested on: SF-268 CNS
[42] = tested on: SF-295 CNS
[43] = tested on: SF-539 CNS
[44] = tested on: SK-MEL-2 melanoma
[45] = tested on: SK-MEL-28 melanoma
[46] = tested on: SK-MEL-5 melanoma
[47] = tested on: SK-OV-3 ovarian
[48] = tested on: SN12C renal
[49] = tested on: SNB-19 CNS
[50] = tested on: SNB-75 CNS
[51] = tested on: SR leukemia
[52] = tested on: SW-620 colon
[53] = tested on: T-47D breast
[54] = tested on: TK-10 renal
[55] = tested on: U251 CNS
[56] = tested on: UACC-257 melanoma
[57] = tested on: UACC-62 melanoma
[58] = tested on: UO-31 renal
[59] = tested on: A498 renal

O=C(Nc1sccc1S(=O)(=O)c1ccccc1)c1cccnc1
TGI [1]: > 100 µM
TGI [2]: > 100 µM
TGI [3]: > 100 µM
TGI [4]: > 86.1 µM
TGI [5]: > 100 µM
TGI [6]: > 24.5 µM
TGI [7]: 18 µM
TGI [8]: > 100 µM
TGI [9]: > 100 µM
TGI [10]: > 100 µM
TGI [11]: > 100 µM
TGI [12]: > 100 µM
TGI [13]: 4.28 µM
TGI [14]: > 100 µM
TGI [15]: > 100 µM
TGI [16]: > 100 µM
TGI [17]: > 100 µM
TGI [18]: > 94.2 µM
TGI [19]: > 100 µM
TGI [20]: > 100 µM
TGI [21]: > 100 µM
TGI [22]: > 100 µM
TGI [23]: > 100 µM
TGI [24]: > 100 µM
TGI [25]: > 100 µM
TGI [26]: 8.36 µM
TGI [27]: 3.63 µM
TGI [28]: > 100 µM
TGI [29]: > 59.3 µM
TGI [30]: > 80.2 µM
TGI [31]: > 100 µM
TGI [32]: > 85.4 µM
TGI [33]: > 52.7 µM
TGI [34]: > 100 µM
TGI [35]: > 100 µM
TGI [36]: > 100 µM
TGI [37]: > 100 µM
TGI [38]: > 100 µM
TGI [39]: > 100 µM
TGI [40]: > 100 µM
TGI [41]: > 100 µM
TGI [42]: > 100 µM
TGI [43]: 38.2 µM
TGI [44]: > 100 µM
TGI [45]: > 100 µM
TGI [46]: > 26.3 µM
TGI [47]: > 89.1 µM
TGI [48]: > 100 µM
TGI [49]: > 100 µM
TGI [50]: > 91 µM
TGI [51]: > 100 µM
TGI [52]: > 100 µM
TGI [53]: > 100 µM
TGI [54]: > 100 µM
TGI [55]: > 100 µM
TGI [56]: > 100 µM
TGI [57]: > 100 µM
TGI [58]: > 100 µM

N#Cc1c(Sc2ccccc2N)cccc1Sc1ccccc1N
GI50 [1]: 37.8 µM
GI50 [2]: 56.9 µM
GI50 [3]: 35.2 µM
GI50 [4]: 76.9 µM
GI50 [5]: 60.8 µM
GI50 [6]: 20.9 µM
GI50 [7]: 34.9 µM
GI50 [9]: 35.6 µM
GI50 [10]: 67.7 µM
GI50 [11]: 71.9 µM
GI50 [12]: 55.6 µM
GI50 [13]: 16.4 µM
GI50 [15]: 31 µM
GI50 [16]: 22.5 µM
GI50 [17]: 63.4 µM
GI50 [18]: 50.9 µM
GI50 [19]: 22.9 µM
GI50 [20]: 66.7 µM
GI50 [22]: 62.6 µM
GI50 [23]: 25.3 µM
GI50 [24]: 27.9 µM
GI50 [25]: 49.8 µM
GI50 [26]: 43.2 µM
GI50 [27]: 49.1 µM
GI50 [28]: 22.2 µM
GI50 [29]: 96.8 µM
GI50 [30]: 59 µM
GI50 [31]: 40.3 µM
GI50 [32]: 51.7 µM
GI50 [33]: 15.4 µM
TGI [33]: 38.4 µM
GI50 [35]: 42.1 µM
GI50 [37]: 53.8 µM
GI50 [39]: 28.8 µM
GI50 [40]: 72.8 µM
GI50 [41]: 38.4 µM
GI50 [42]: 84 µM
GI50 [43]: 69.7 µM
GI50 [46]: 34.7 µM
GI50 [48]: 42.1 µM
GI50 [49]: 97.5 µM
GI50 [50]: 2.24 µM
TGI [50]: 14.5 µM
GI50 [51]: 56.8 µM
GI50 [52]: 79.8 µM
GI50 [53]: 51.7 µM
GI50 [55]: 35.6 µM
GI50 [56]: 21.3 µM
GI50 [57]: 14.7 µM
GI50 [58]: 7.56 µM

CN(C)C(=S)N/N=C\C=N/NC(=S)N(C)C
TGI [1]: > 100 µM
TGI [59]: 34.5 µM
TGI [2]: > 100 µM
TGI [4]: > 100 µM
TGI [5]: > 100 µM
TGI [7]: > 100 µM
TGI [8]: > 40.7 µM
TGI [9]: > 100 µM
TGI [10]: > 100 µM
TGI [11]: > 100 µM
TGI [12]: > 100 µM
TGI [15]: > 100 µM
TGI [16]: > 23.4 µM
TGI [17]: > 100 µM
TGI [18]: > 100 µM
TGI [19]: > 100 µM
TGI [20]: > 100 µM
TGI [21]: > 100 µM
TGI [22]: 3.22 µM
TGI [24]: > 100 µM
TGI [25]: > 100 µM
TGI [26]: > 100 µM
TGI [27]: > 100 µM
TGI [29]: > 81.9 µM
TGI [30]: > 58.8 µM
TGI [31]: > 100 µM
TGI [32]: > 85.3 µM
TGI [34]: > 100 µM
TGI [35]: > 100 µM
TGI [36]: > 100 µM
TGI [37]: > 100 µM
TGI [38]: > 100 µM
TGI [39]: > 100 µM
TGI [41]: > 20.2 µM
TGI [42]: > 32.1 µM
TGI [43]: > 100 µM
TGI [44]: > 100 µM
TGI [45]: > 100 µM
TGI [46]: > 100 µM
TGI [47]: > 100 µM
TGI [48]: 11.1 µM
TGI [49]: > 100 µM
TGI [50]: > 100 µM
TGI [52]: > 100 µM
TGI [53]: > 100 µM
TGI [54]: > 100 µM
TGI [55]: > 100 µM
TGI [56]: > 100 µM
TGI [57]: 22 µM
TGI [58]: > 100 µM

Cc1nc2ccc(S(=O)(=O)Nc3ccc(Cl)cc3)cc2c(=O)n1NC(=O)CNc1ccc(Cl)cc1
TGI [1]: > 100 µM
TGI [2]: > 100 µM
TGI [3]: > 100 µM
TGI [4]: > 100 µM
TGI [5]: > 100 µM
TGI [6]: > 100 µM
TGI [7]: > 100 µM
TGI [8]: > 100 µM
TGI [9]: > 100 µM
TGI [10]: > 100 µM
TGI [11]: > 100 µM
TGI [12]: > 100 µM
TGI [13]: > 100 µM
TGI [14]: > 100 µM
TGI [15]: > 100 µM
TGI [16]: > 100 µM
TGI [17]: > 100 µM
TGI [18]: > 100 µM
TGI [19]: > 100 µM
TGI [20]: > 100 µM
TGI [21]: > 100 µM
TGI [22]: > 100 µM
TGI [23]: > 100 µM
TGI [24]: > 100 µM
TGI [25]: > 100 µM
TGI [26]: > 100 µM
TGI [27]: > 100 µM
TGI [28]: > 100 µM
TGI [29]: > 100 µM
TGI [30]: > 100 µM
TGI [31]: > 100 µM
TGI [32]: > 100 µM
TGI [33]: > 100 µM
TGI [34]: > 100 µM
TGI [35]: > 100 µM
TGI [36]: > 100 µM
TGI [37]: > 100 µM
TGI [38]: > 100 µM
TGI [39]: > 100 µM
TGI [41]: > 100 µM
TGI [42]: > 100 µM
TGI [43]: > 100 µM
TGI [44]: > 100 µM
TGI [45]: > 100 µM
TGI [47]: > 100 µM
TGI [48]: > 100 µM
TGI [49]: > 100 µM
TGI [50]: > 100 µM
TGI [51]: > 100 µM
TGI [52]: > 100 µM
TGI [54]: > 100 µM
TGI [55]: > 100 µM
TGI [56]: > 100 µM
TGI [57]: > 100 µM
TGI [58]: > 100 µM

— PubChem BioAssay (NCI)
